ChEMBL document CHEMBL1201862, “PubChem BioAssay data set” (2004)
Active and inactive are the calls of the source.

Legend:
[1] = biological target: Genome polyprotein (dengue virus type 2, UniProt P29990); assay: flavivirus cap methylation enzyme inhibition – biochemical, confirmation dose response, primary screen (AID 588689); assay type: functional
[2] = biological target: T1, Histone-lysine N-methyltransferase NSD2 (Homo sapiens, UniProt O96028); assay type: biochemical
T1 sequence (O96028 whole entry): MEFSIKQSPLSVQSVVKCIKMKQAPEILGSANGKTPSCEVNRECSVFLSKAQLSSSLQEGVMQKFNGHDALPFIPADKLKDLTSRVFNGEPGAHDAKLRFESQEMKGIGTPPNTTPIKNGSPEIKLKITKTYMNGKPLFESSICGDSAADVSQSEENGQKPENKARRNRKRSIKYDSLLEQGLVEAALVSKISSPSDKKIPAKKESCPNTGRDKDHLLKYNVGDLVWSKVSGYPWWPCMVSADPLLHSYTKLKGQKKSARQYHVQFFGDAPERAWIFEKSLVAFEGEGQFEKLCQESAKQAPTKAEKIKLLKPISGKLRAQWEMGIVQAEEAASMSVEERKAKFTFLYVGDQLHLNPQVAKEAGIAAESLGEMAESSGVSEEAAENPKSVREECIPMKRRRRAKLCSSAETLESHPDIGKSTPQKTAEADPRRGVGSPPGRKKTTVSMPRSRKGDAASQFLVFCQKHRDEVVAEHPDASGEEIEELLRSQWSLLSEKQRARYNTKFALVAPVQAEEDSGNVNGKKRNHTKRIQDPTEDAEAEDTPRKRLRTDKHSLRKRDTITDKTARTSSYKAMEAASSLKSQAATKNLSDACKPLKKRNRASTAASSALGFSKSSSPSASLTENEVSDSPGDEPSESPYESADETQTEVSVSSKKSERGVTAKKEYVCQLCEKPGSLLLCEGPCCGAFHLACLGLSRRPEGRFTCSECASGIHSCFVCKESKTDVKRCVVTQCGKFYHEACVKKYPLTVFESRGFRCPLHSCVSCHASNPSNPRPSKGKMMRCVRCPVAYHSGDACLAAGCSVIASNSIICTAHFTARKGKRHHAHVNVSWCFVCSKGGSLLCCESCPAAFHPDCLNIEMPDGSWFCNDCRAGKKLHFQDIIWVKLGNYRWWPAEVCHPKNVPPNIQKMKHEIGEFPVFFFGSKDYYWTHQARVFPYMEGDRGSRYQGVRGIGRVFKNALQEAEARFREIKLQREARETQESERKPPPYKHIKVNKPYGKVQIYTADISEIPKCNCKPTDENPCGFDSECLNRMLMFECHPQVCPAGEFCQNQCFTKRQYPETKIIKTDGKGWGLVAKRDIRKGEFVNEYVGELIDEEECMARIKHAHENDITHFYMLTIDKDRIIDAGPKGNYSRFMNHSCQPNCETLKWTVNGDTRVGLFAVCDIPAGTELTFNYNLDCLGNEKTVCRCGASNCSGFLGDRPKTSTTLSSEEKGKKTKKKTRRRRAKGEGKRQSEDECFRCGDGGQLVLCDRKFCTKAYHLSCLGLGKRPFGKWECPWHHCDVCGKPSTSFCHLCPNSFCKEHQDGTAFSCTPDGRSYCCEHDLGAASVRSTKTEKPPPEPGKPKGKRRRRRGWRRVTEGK

[3] = biological target: T2, 1-phosphatidylinositol 4,5-bisphosphate phosphodiesterase beta-3 (Homo sapiens, UniProt Q01970); assay: Fluorescence-based biochemical high throughput dose response assay to identify inhibitors of phospholipase C isozymes (PLC-B3).
T2 sequence (Q01970 whole entry): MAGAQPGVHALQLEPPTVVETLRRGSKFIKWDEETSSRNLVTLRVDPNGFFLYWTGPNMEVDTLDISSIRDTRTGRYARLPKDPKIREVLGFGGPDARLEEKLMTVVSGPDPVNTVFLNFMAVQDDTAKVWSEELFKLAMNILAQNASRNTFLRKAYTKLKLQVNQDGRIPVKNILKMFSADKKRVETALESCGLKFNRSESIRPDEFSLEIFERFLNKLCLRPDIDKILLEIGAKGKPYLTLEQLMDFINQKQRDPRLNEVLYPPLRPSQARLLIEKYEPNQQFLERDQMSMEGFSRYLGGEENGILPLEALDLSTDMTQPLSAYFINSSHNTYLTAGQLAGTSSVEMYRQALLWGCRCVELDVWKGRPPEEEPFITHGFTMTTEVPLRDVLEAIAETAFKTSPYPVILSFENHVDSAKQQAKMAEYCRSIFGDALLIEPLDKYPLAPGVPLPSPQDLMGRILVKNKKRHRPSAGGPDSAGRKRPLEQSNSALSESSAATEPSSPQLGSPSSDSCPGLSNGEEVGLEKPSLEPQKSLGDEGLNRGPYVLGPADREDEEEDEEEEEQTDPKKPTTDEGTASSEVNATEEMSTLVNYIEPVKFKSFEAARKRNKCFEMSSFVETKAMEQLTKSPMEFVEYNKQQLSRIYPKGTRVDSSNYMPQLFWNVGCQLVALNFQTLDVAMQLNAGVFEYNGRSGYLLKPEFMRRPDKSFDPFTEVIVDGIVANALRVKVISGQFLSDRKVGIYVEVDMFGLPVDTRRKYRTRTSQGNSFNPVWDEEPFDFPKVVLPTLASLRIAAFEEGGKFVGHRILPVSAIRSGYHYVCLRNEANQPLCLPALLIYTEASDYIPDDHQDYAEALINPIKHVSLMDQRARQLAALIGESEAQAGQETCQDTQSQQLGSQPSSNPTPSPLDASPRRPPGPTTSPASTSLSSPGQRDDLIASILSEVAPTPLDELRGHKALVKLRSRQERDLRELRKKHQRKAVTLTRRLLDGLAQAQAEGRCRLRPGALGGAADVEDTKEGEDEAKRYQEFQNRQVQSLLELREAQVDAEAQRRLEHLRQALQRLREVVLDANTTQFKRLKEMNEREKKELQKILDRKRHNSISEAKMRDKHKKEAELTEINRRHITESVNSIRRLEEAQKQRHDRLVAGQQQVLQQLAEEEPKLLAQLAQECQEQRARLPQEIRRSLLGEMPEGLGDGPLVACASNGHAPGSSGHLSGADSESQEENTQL

Sequence of Genome polyprotein (P29990 2492-3391 limits assumed): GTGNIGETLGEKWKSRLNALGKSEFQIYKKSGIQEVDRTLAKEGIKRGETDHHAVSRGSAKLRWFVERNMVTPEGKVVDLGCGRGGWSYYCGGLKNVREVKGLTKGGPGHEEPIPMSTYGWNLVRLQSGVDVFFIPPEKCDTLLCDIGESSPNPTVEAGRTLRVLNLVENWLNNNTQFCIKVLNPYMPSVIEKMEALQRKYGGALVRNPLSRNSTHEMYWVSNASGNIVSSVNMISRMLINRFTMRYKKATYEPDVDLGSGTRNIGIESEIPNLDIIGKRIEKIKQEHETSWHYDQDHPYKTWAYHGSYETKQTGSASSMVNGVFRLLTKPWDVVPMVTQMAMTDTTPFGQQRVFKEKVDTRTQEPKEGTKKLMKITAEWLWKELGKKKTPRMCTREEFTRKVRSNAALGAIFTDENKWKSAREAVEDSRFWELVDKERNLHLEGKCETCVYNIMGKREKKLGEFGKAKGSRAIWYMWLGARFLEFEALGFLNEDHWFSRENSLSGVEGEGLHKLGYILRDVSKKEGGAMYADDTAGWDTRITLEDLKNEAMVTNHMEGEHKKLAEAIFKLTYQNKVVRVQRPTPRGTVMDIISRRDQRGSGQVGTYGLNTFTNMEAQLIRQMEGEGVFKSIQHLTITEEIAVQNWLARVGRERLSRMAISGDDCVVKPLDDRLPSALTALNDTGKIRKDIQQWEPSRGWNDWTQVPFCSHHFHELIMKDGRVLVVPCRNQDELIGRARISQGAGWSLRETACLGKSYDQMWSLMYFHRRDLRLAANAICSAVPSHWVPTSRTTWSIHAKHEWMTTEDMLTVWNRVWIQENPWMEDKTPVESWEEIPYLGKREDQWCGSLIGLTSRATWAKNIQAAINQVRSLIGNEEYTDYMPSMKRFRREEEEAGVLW

For COC(=O)c1ccc(-c2ccc(C(c3c(C)[nH][nH]c3=O)c3c(C)[nH][nH]c3=O)o2)cc1, the IC50 [1] was > 100 µM (active) and the AC50 [2] was 17.8 µM (active).
For Oc1ccc(/C=N/NC(=S)Nc2cccnc2)c(O)c1O, the IC50 [1] was 24.4 µM (active) and the IC50 [3] was > 122 µM (inactive).
